The results in this text go back to patent publication US20100081825A1, “1-NAPHTHYL ALKYLPIPERIDINE DERIVATIVE” (Taisho Pharmaceutical Co Ltd, priority 2006, published 2010).

Where a name gives a salt, the structure may show the parent alone.

This assay addresses T1, MCH1R (Homo sapiens, UniProt Q99705).
T1 construct: IC50; other: cells stably expressing non-endogenous active MCH1R; 50 nM MCH; Fluo-4 calcium, FDSS6000; list of compounds i
The experiment in a line: MCH1R calcium evaluation test (FDSS assay, inhibition of MCH-induced intracellular calcium increase). The format is cell-based. The settings on record: cells stably expressing non-endogenous active MCH1R; 50 nM MCH; Fluo-4 calcium, FDSS6000. From the text:
MCH1R Calcium Evaluation Test
An FDSS assay can measure the intracellular calcium concentration and can evaluate the Gq-coupled receptor activity using the calcium concentration as an index. For example, the assay can determine whether an analyte is an antagonist, an inverse agonist or an agonist for a Gq-coupled receptor. The FDSS6000™ system (Hamamatsu Photonics K.K.) is designed to perform evaluation based on functionality such as measurement of intracellular calcium for high-throughput screening. Intracellular calcium release by activation of a Gq-coupled receptor can be fluorometrically measured by incorporating a calcium indicator (such as Fluo4) into cells. On the other hand, the assay cannot measure the activation of Gi- and Go-coupled receptors, because the activation is not associated with calcium signaling pathways.
Intracellular fluorescence can be rapidly and successively measured in a 96-well microplate or a 384-well microplate using a fluorometric imaging plate reader system. FDSS6000™ can simultaneously measure fluorescence in all wells sensitively, accurately and by seconds. This system is ideal for functional analysis in cells such as monitoring of an intracellular calcium flow generated within several seconds after activation of a Gq-coupled receptor.
On the day before the test, cells stably expressing non-endogenous active MCH1R were seeded into a 96-well microplate at 3×10^4 cells per well. 100 μL per well of a medium (Dulbecco's modified Eagle medium containing 10% fetal bovine serum, 2 mM glutamine, 1 mM sodium pyruvate and 0.5 mg/mL G418, pH 7.4) was used for culture. On the day of the test, the medium was removed and an assay buffer {Hank's balanced salt solution containing 20 mM HEPES, 0.5 mM probenecid, 0.05 mg/mL amaranth and 0.2% bovine serum albumin (BSA), pH 7.4} containing 2 μM Fluo-4-AM and 0.04% Pluronic F127 was added at 100 μL per well, followed by incubation in a 5% CO2 incubator at 37° C. for one hour. Thereafter, the buffer was removed and an assay buffer containing each concentration of the test compound was newly added at 150 μL per well, followed by incubation in a 5% CO2 incubator at 37° C. for 30 minutes. An assay buffer containing each concentration of MCH was added at 50 μL per well, and transient changes in the intracellular calcium concentration induced by MCH were monitored using FDSS6000™ at Ex. 488 nm and Em. 530 nm for 180 seconds. In testing the antagonistic activity of the analyte, MCH was added to a final concentration of 50 nM. An inhibition curve was prepared with various concentrations of the analyte, and the concentration of the analyte inhibiting 50% of the increase in intracellular calcium when 50 nM MCH was added (IC50 value) was calculated using data analysis software Origin Ver. 6.
For orientation: Calcium flux is commonly read through the fluorescence of an indicator in the cells.
As a reminder, the IC50 is the concentration at which inhibition is half-maximal. Regarding `COc1cccc(C(=O)NC2CCN(Cc3ccc4ccc(COCCN(C)C)cc4c3)CC2)c1` [Example 37, N-{1-[(7-{[2-(dimethylamino)ethoxy]methyl}-2-naphthyl)methyl]piperidin-4-yl}-3-methoxybenzamide], the IC50 is 4.89 nM.
Regarding `COCc1ccc2ccc(CN3CCC(NC(=O)c4cccc(OC)c4)CC3)cc2c1` [Example 13, 3-Methoxy-N-(1-{[7-(methoxymethyl)-2-naphthyl]methyl}piperidin-4-yl)benzamide], the IC50 worked out at 10.4 nM.
Regarding `CNCCNCc1ccc2ccc(CN3CCC(NC(=O)c4cccc(OC)c4)CC3)cc2c1` [Example 67, 3-Methoxy-N-(1-{[7-({[2-(methylamino)ethyl]amino}methyl)-2-naphthyl]methyl}piperidin-4-yl)benzamide trihydrochloride], the IC50 turned out to be 6.51 nM.
For `COCCOCc1ccc2ccc(CN3CCC(NC(=O)c4cccc(C(C)=O)c4)CC3)cc2c1` [Example 90, 3-Acetyl-N-[1-({7-[(2-methoxyethoxy)methyl]-2-naphthyl}methyl)piperidin-4-yl]benzamide], the IC50 is 7.69 nM.
Regarding `COCc1ccc2ccc(CN3CCC(NC(=O)c4cc(OC)cc(OC)c4)CC3)cc2c1` [Example 10, 3,5-Dimethoxy-N-(1-{[7-(methoxymethyl)-2-naphthyl]methyl}piperidin-4-yl)benzamide], the IC50 worked out at 4.99 nM.
The same measure for `COc1cccc(C(=O)NC2CCN(Cc3ccc4ccc(CNCCN(C)C)cc4c3)CC2)c1` [Example 49, N-(1-{[7-({[2-(Dimethylamino)ethyl]amino}methyl)-2-naphthyl]methyl}piperidin-4-yl)-3-methoxybenzamide]: 7.08 nM.
Turning to `COc1cccc(C(=O)NC2CCN(Cc3ccc4ccc(CNCCN5CCCC5)cc4c3)CC2)c1` [Example 48, 3-Methoxy-N-{1-[(7-{[(2-pyrrolidin-1-ylethyl)amino]methyl}-2-naphthyl)methyl]piperidin-4-yl}benzamide], the IC50 came to 9.68 nM.
Consider `COc1cccc(C(=O)NC2CCN(Cc3ccc4ccc(CCO)cc4c3)CC2)c1` [Example 120, N-(1-{[7-(2-hydroxyethyl)-2-naphthyl]methyl}piperidin-4-yl)-3-methoxybenzamide], for which the IC50 was 7.41 nM.
As for `CCOCc1ccc2ccc(CN3CCC(NC(=O)c4ccc(F)c(Cl)c4)CC3)cc2c1` [Example 6, 3-chloro-N-(1-{[7-(ethoxymethyl)-2-naphthyl]methyl}piperidin-4-yl)-4-fluorobenzamide], the IC50 was found to be 3.54 nM.
In the case of `COCCOCc1ccc2ccc(CN3CCC(NC(=O)c4cccc(OC)c4)CC3)cc2c1` [Example 26, 3-Methoxy-N-[1-({7-[(2-methoxyethoxy)methyl]-2-naphthyl}methyl)piperidin-4-yl]benzamide] it was 5.67 nM; in that of `COc1cccc(C(=O)NC2CCN(Cc3ccc4ccc(CNCCN)cc4c3)CC2)c1` [Example 64, N-{1-[(7-{[(2-Aminoethyl)amino]methyl}-2-naphthyl)methyl]piperidin-4-yl}-3-methoxybenzamide trihydrochloride], 7.14 nM.
The same measure for `COc1cccc(C(=O)NC2CCN(Cc3ccc4ccc(COCCN5CCCC5)cc4c3)CC2)c1` [Example 36, 3-Methoxy-N-[1-({7-[(2-pyrrolidin-1-ylethoxy)methyl]-2-naphthyl}methyl)piperidin-4-yl]benzamide]: 6.11 nM.
